Laboratory results taken from the supplement of paper PMC12137928.
Where a name gives a salt, the structure may show the parent alone.

System: HCT116
Settings: 72 h
In short: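 After seeding at 250 cells per well in 1536-well plates, HCT116 cells were given 5 h to attach. CellTiter-Glo luminescence, scaled to 0% for vehicle and -100% for positive control, was pattern-corrected. Fitting with a four-parameter Hill model produced IC50 and maximal efficacy.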

SMILES	IC50 cell viability (ICRF193 0 nM) [µM]	IC50 cell viability (ICRF193 200 nM) [µM]
CCCCOc1ccc(CC(=O)NO)cc1 [Bufexamac]	> 45.8	> 45.8
CCCCNC(=N)NC(=N)N [Buformin]	> 45.8	> 45.8
CCCCNc1cc(C(=O)O)cc(S(N)(=O)=O)c1Oc1ccccc1 [Bumetanide]	> 45.8	> 45.8
Cc1ccc(Cl)c(OCC(O)CNC(C)(C)C)c1 (configuration not stated) [Bupranolol]	> 45.8	> 45.8
CC(NC(C)(C)C)C(=O)c1cccc(Cl)c1 (configuration not stated) [Bupropion hydrochloride]	> 45.8	> 45.8
CCOC(=O)c1cnc2cc(OCC(C)C)c(OCC(C)C)cc2c1O [Buquinolate]	> 45.8	> 45.8
O=C1CC2(CCCC2)CC(=O)N1CCCCN1CCN(c2ncccn2)CC1 [Buspirone]	> 45.8	> 45.8
CS(=O)(=O)OCCCCOS(C)(=O)=O [Busulfan]	> 45.8	> 45.8
CCCCN(CCCC)CCCOC(=O)c1ccc(N)cc1 [Butacaine]	> 45.8	> 45.8
CC(C)C(=O)Nc1cccc(C2CN3CCSC3=N2)c1 (configuration not stated) [Butamisole]	> 45.8	> 45.8
O=C(O)CCC(=O)O [Butanedioic acid]	> 45.8	> 45.8
CN(Cc1ccc(C(C)(C)C)cc1)Cc1cccc2ccccc12 [Butenafine]	> 45.8	> 45.8
CCCCC(CC)CNC(=O)CC(C)OC(=O)CCC(=O)O (configuration not stated) [Butoctamide semisuccinate]	> 45.8	> 45.8
CCCC(=O)OC(C(Cl)(Cl)Cl)P(=O)(OC)OC (configuration not stated) [Butonate]	> 45.8	> 45.8
CCCCOc1ccc(C[N+]2(C)[C@@H]3CC[C@H]2C[C@H](OC(=O)C(CO)c2ccccc2)C3)cc1 (some centres not stated) [Butropium Bromide]	> 45.8	> 45.8
CCCCOC(=O)c1ccc(N)cc1 [Butyl 4-aminobenzoate]	> 45.8	> 45.8
CCCCOC(=O)c1ccc(O)cc1 [Butylparaben]	> 45.8	> 45.8
CCCC[N+]1(C)[C@@H]2C[C@@H](OC(=O)[C@H](CO)c3ccccc3)C[C@H]1[C@@H]1O[C@@H]12 (some centres not stated) [Butylscopolamine bromide]	> 45.8	> 45.8
Cc1ccccc1/N=N/c1ccc(/N=N/c2c(O)ccc3ccccc23)c(C)c1 [C.I. Solvent Red 24]	> 45.8	> 45.8
O=C([O-])C(O)[C@H](O)[C@@H](O)[C@H](O)[C@H](O)CO.O=C([O-])C(O)[C@H](O)[C@@H](O)[C@H](O)[C@H](O)CO.[Ca+2] (some centres not stated) [CALCIUM GLUCEPTATE]	> 45.8	> 45.8
COC(=S)NCCn1c([N+](=O)[O-])cnc1C [CARNIDAZOLE]	> 45.8	> 45.8

SMILES	IC50 cell viability (ICRF193 0 nM) [µM]	IC50 cell viability (ICRF193 200 nM) [µM]
N[C@@H](C(=O)N[C@@H]1C(=O)N2C(C(=O)O)=C(Cl)CS[C@H]12)c1ccccc1 [CEFACLOR]	> 45.8	> 45.8
Cn1nnnc1SCC1=C(C(=O)O)N2C(=O)[C@@H](NC(=O)[C@H](O)c3ccccc3)[C@H]2SC1 [CEFAMANDOLE SODIUM]	> 45.8	> 45.8
CO/N=C(\C(=O)N[C@@H]1C(=O)N2C(C(=O)O)=C(C[N+]3(C)CCCC3)CS[C@H]12)c1csc(N)n1 [CEFEPIME HYDROCHLORIDE]	> 45.8	> 45.8
CO/N=C(\C(=O)N[C@@H]1C(=O)N2C(C(=O)O)=C(CSc3nnnn3C)CS[C@H]12)c1csc(N)n1 [CEFMENOXIME HYDROCHLORIDE]	> 45.8	> 45.8
CO[C@@]1(NC(=O)C2SC(=C(C(N)=O)C(=O)O)S2)C(=O)N2C(C(=O)O)=C(CSc3nnnn3C)CS[C@@H]21 (some centres not stated) [CEFOTETAN]	> 45.8	> 45.8
COCC1=C(C(=O)OC(C)OC(=O)OC(C)C)N2C(=O)[C@@H](NC(=O)/C(=N\OC)c3csc(N)n3)[C@H]2SC1 (some centres not stated) [CEFPODOXIME PROXETIL]	> 45.8	> 45.8
COCC1=C(C(=O)O)N2C(=O)[C@@H](NC(=O)/C(=N\OC)c3csc(N)n3)[C@H]2SC1 [CEFPODOXIME]	> 45.8	> 45.8
Nc1nc(/C(=C/CC(=O)O)C(=O)N[C@@H]2C(=O)N3C(C(=O)O)=CCS[C@H]23)cs1 [CEFTIBUTEN]	> 45.8	> 45.8
CO/N=C(\C(=O)N[C@@H]1C(=O)N2C(C(=O)O)=C(CSC(=O)c3ccco3)CS[C@H]12)c1csc(N)n1 [CEFTIOFUR HYDROCHLORIDE]	> 45.8	> 45.8
Cc1oc(=O)oc1COC(=O)N1CC[C@@H](N2CC/C(=C\C3=C(C(=O)O)N4C(=O)[C@@H](NC(=O)/C(=N/O)c5nsc(N)n5)[C@H]4SC3)C2=O)C1 [CEFTOBIPROLE MEDOCARIL SODIUM]	> 45.8	> 45.8
CC1=C(C(=O)O)N2C(=O)[C@@H](NC(=O)[C@H](N)C3=CCC=CC3)[C@H]2SC1 [CEPHRADINE]	> 45.8	> 45.8
O=C(O)COCCN1CCN(C(c2ccccc2)c2ccc(Cl)cc2)CC1 (configuration not stated) [CETIRIZINE HYDROCHLORIDE]	> 45.8	> 45.8
C=C[C@H]1CN2CC[C@H]1C[C@H]2[C@H](O)c1ccnc2ccccc12 [CINCHONIDINE]	> 45.8	> 45.8
O=C(O)/C=C/c1ccccc1 [CINNAMIC ACID]	> 45.8	> 45.8
C[N+](C)(C)CCOP(=O)(O)OP(=O)([O-])OC[C@H]1O[C@@H](n2ccc(N)nc2=O)[C@H](O)[C@@H]1O [CITICOLINE]	> 45.8	> 45.8
O=C([O-])[C@H]1/C(=C/CO)O[C@@H]2CC(=O)N21.[Li+] [CLAVULANATE LITHIUM]	> 45.8	> 45.8
Nc1ccn([C@@H]2O[C@H](CO)[C@@H](O)[C@H]2O)c(=O)n1 [CYTIDINE]	> 45.8	> 45.8
C=CCN1C[C@H](C(=O)N(CCCN(C)C)C(=O)NCC)C[C@@H]2c3cccc4[nH]cc(c34)C[C@H]21 [Cabergoline]	> 45.8	> 45.8
CCOC(=O)NNc1ccc(N(CC)CC(C)O)nn1 (configuration not stated) [Cadralazine]	> 45.8	> 45.8
Cn1c(=O)c2c(ncn2C)n(C)c1=O [Caffeine]	> 45.8	> 45.8
C=C1/C(=C\C=C2/CCC[C@]3(C)[C@@H]([C@H](C)CCCC(C)(C)O)CC[C@@H]23)C[C@@H](O)C[C@@H]1O [Calcitriol]	> 45.8	> 45.8

SMILES	IC50 cell viability (ICRF193 0 nM) [µM]	IC50 cell viability (ICRF193 200 nM) [µM]
CC(C)(CO)[C@@H](O)C(=O)NCCCC(=O)O [Calcium hopantenate]	> 45.8	> 45.8
CC(=O)CCC(=O)O [Calcium levulinate]	> 45.8	> 45.8
C=CCCCCCCCCC(=O)[O-].C=CCCCCCCCCC(=O)[O-].[Ca+2] [Calcium undecylenate]	> 45.8	> 45.8
CN(C)C(=O)COC(=O)Cc1ccc(OC(=O)c2ccc(NC(=N)N)cc2)cc1 [Camostat]	> 45.8	> 45.8
CCN(CC)CCNC(C(=O)OCCC(C)C)c1ccccc1 (configuration not stated) [Camylofin]	> 45.8	> 45.8
Cc1ccc([C@@H]2O[C@H](CO)[C@@H](O)[C@H](O)[C@H]2O)cc1Cc1ccc(-c2ccc(F)cc2)s1 [Canagliflozin]	> 45.8	> 45.8
CCCCCOC(=O)Nc1nc(=O)n([C@@H]2O[C@H](C)[C@@H](O)[C@H]2O)cc1F [Capecitabine]	> 45.8	> 45.8
C[C@@H]1NC(=O)[C@@H](N)CNC(=O)[C@H]([C@H]2CCNC(N)=N2)NC(=O)/C(=C/NC(N)=O)NC(=O)[C@H](CNC(=O)C[C@@H](N)CCCN)NC1=O [Capreomycin IB]	> 45.8	> 45.8
CN1N=C2CCN(C(=O)[C@@H](COCc3ccccc3)NC(=O)C(C)(C)N)C[C@@]2(Cc2ccccc2)C1=O [Capromorelin]	> 45.8	> 45.8
O=C1C2CC=CCC2C(=O)N1SC(Cl)(Cl)Cl (configuration not stated) [Captan]	> 45.8	> 45.8
C[C@H](CS)C(=O)N1CCC[C@H]1C(=O)O [Captopril]	> 45.8	> 45.8
CCN(CC)CCOC(=O)C1(c2ccccc2)CCCC1 [Caramiphen edisylate]	> 45.8	> 45.8
C[N+](C)(C)CCOC(N)=O [Carbachol]	> 45.8	> 45.8
COC(=O)N/N=C/c1c[n+]([O-])c2ccccc2[n+]1[O-] [Carbadox]	> 45.8	> 45.8
NC(=O)N1c2ccccc2C=Cc2ccccc21 [Carbamazepine]	> 45.8	> 45.8
CNC(=O)Oc1cccc2ccccc12 [Carbaryl]	> 45.8	> 45.8
CN1C2=CC(=O)/C(=N\NC(N)=O)C=C2CC1S(=O)(=O)O (configuration not stated) [Carbazochrome sodium sulfonate]	> 45.8	> 45.8
CC1(C)S[C@@H]2[C@H](NC(=O)C(C(=O)O)c3ccccc3)C(=O)N2[C@H]1C(=O)O (some centres not stated) [Carbenicillin disodium]	> 45.8	> 45.8
CC1(C)S[C@@H]2[C@H](NC(=O)C(C(=O)Oc3ccc4c(c3)CCC4)c3ccccc3)C(=O)N2[C@H]1C(=O)O (some centres not stated) [Carbenicillin indanyl]	> 45.8	> 45.8
